Test results: PubChem BioAssay (NCI)
“And” between values parts separate entries of the source, which are not always exact repeats. Equal entries are not always repeated.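 Briefly, cells in 96-well plates were exposed to five compound concentrations for 48 h, and endpoints were estimated by linear interpolation. The concentration for 50% growth inhibition is given as GI50. TGI: concentration producing complete growth inhibition.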 Where a SMILES comes first, the peptide text is derived from it. [ ]: non-standard residue; d: D form. The star is where a group is joined. NMeAc5c = CNC1(C(=O)O)CCCC1; Boc = CC(C)(C)OC(=O)*; OBn = c1ccc(CO*)cc1

Assays:
Experiment in all cases: NCI tumour cell line growth inhibition, 48 h
[1] = test system: ACHN renal
[2] = test system: CAKI-1 renal
[3] = test system: CCRF-CEM leukemia
[4] = test system: EKVX NSCLC
[5] = test system: HCT-15 colon
[6] = test system: HOP-62 NSCLC
[7] = test system: LOX IMVI melanoma
[8] = test system: MOLT-4 leukemia
[9] = test system: OVCAR-4 ovarian
[10] = test system: OVCAR-8 ovarian

SMILES	TGI [1]	TGI [2]	TGI [3]	TGI [4]	TGI [5]	TGI [6]	TGI [7]	TGI [8]	TGI [9]	TGI [10]	GI50 [2]	GI50 [3]	GI50 [5]	GI50 [7]	GI50 [8]	GI50 [10]
Nc1nc(SCCc2ccccc2)c2[nH]cnc2n1	> 100 µM	> 100 µM	> 100 µM	78.8 µM	> 100 µM	> 100 µM	> 100 µM	> 100 µM	> 100 µM	> 100 µM						
Cc1n[nH]c(=O)n1/N=C/c1ccc(Cl)cc1	> 100 µM	> 100 µM	94.8 µM	72.5 µM	> 100 µM	> 100 µM		> 100 µM	> 100 µM	> 100 µM						
CCOC(=O)c1csc(NC(=O)CN2CCOCC2)n1	> 100 µM	> 100 µM	> 100 µM	> 100 µM	> 100 µM	> 100 µM	> 100 µM	48.5 µM	> 100 µM	> 100 µM						
CC1(C)OC(=O)N(c2ccccc2)C12C=Cc1cc([N+](=O)[O-])cc([N+](=O)[O-])c1O2 (configuration not stated)	> 100 µM	> 100 µM	> 100 µM	> 100 µM	> 100 µM	> 100 µM	> 100 µM	> 100 µM	> 100 µM	> 100 µM						
O=c1[nH]c(Nc2cccc(CC(F)(F)F)c2)nc2nc[nH]c12	> 100 µM	> 100 µM	> 100 µM	> 100 µM	> 100 µM	> 100 µM	> 100 µM		> 100 µM	> 100 µM						
CC(=O)NC(Cc1ccc(O)cc1)C(=O)O (configuration not stated)	> 100 µM	> 100 µM		> 100 µM	> 100 µM	> 100 µM	> 100 µM	> 100 µM	> 100 µM	> 100 µM						
Cc1ccc(N=NC(=Nc2ccccc2)c2ccc(N(CCC#N)CCC#N)cc2)cc1	> 100 µM	> 100 µM	> 100 µM	> 100 µM	> 100 µM	> 100 µM		> 100 µM	> 100 µM	> 100 µM						
O=[N+]([O-])c1ccc2c(c1)/C(=N/N=C1c3ccccc3Cc3ccccc31)c1cc([N+](=O)[O-])cc([N+](=O)[O-])c1-2	8.79 µM	9.36 µM	5.55 µM	12.3 µM	4.99 µM	7.01 µM	4.6 µM	5.99 µM	3.13 µM	3.24 µM						
O=C1/C(=C/c2ccccc2)N=C2Sc3c(nc[nH]c3=O)N12	> 100 µM	> 100 µM	> 100 µM	> 100 µM	> 100 µM	> 100 µM	> 100 µM	> 100 µM	> 100 µM	> 100 µM						
CCCCC#C[I+]c1ccccc1	30.9 µM	27.1 µM	24.4 µM	33.4 µM	30 µM	37.6 µM	26.9 µM	23.9 µM	28.9 µM	32.5 µM						
C=C(C)C(=O)OC1C/C(CO)=C\C(O)C/C(C)=C/C2OC(=O)C(=C)C21 (configuration not stated)	48.4 µM	58.7 µM	36.6 µM	69.1 µM	29.6 µM	> 100 µM	35 µM	56.2 µM	63.4 µM	49.5 µM						
O=C(CCN1CCCCC1)C(=Cc1ccccc1)C(=O)CCN1CCCCC1		> 100 µM	7.36 µM and 51.2 µM	> 100 µM		> 100 µM	> 100 µM	42.3 µM	> 100 µM	> 58.1 µM	80.4 µM	2.44 µM	3.07 µM	3.39 µM	4.32 µM	2.56 µM
COc1cc(C2c3cc4c(cc3OC(N3CCOCC3)C2C)OCO4)ccc1O (configuration not stated)	> 100 µM	71.1 µM	> 91.8 µM	> 100 µM	> 100 µM	> 63.8 µM	> 58.9 µM	60.7 µM	> 100 µM	> 100 µM						
CCCCCCCCCCCCCCNC(=O)CCC(NC(=O)c1ccc(N(C)Cc2cnc3nc(N)nc(N)c3n2)cc1)C(=O)NCCCCCCCCCCCCCC (configuration not stated)	30.1 µM	> 100 µM	> 31.6 µM	> 100 µM	28.2 µM	21.2 µM	> 100 µM	27.3 µM	40.9 µM	39.8 µM						
CN1CCN(C2=NCCO2)CC1	> 100 µM	> 100 µM	> 100 µM	> 100 µM	> 100 µM	> 100 µM	> 100 µM	> 100 µM	> 100 µM	> 100 µM						
NC(N)=N/N=C/c1c(-c2ccc(N)cc2)nc2sccn12	77.9 µM	> 100 µM	> 100 µM	61.1 µM	> 100 µM	79 µM	> 100 µM	73.9 µM	> 100 µM	> 100 µM						
C=CC1(C)CCC2C(=CCC3C2(C)CC(O)C(O)C3(C)COC2OC(C(=O)O)C(O)C(O)C2O)C1 (configuration not stated) (tested in a mixture with another compound)	> 100 µM	> 100 µM	> 100 µM	> 100 µM	> 100 µM	> 100 µM	> 100 µM	> 100 µM	> 100 µM	> 100 µM						
O=C1C=CC(=O)c2c1ccc1c3ccccc3n(CCCCCCCCCCCCn3c4ccccc4c4ccc5c(c43)C(=O)C=CC5=O)c21	> 100 µM	> 100 µM	74.1 µM	> 100 µM	> 100 µM	> 100 µM	> 100 µM	> 90.5 µM	> 100 µM	> 100 µM						
CC(C)(C)OC(=O)NCCCCC1NC(=O)[C@@H]2Cc3c([nH]c4ccccc34)C(C3CCCCC3)N2C1=O (some centres not stated)	> 100 µM	> 100 µM		> 100 µM	> 100 µM	> 100 µM	> 100 µM	44.9 µM	> 100 µM	> 100 µM						
O=c1ccc(-c2ccccc2)n[nH]1	> 100 µM	> 100 µM	> 100 µM	> 100 µM	> 100 µM	> 100 µM	> 100 µM	> 100 µM	> 100 µM	> 100 µM						
COc1ccc(N/N=C2\CCOc3ccc(C)cc3C2=O)cc1	> 100 µM	> 100 µM	> 100 µM	> 100 µM	48.7 µM	> 100 µM	30.9 µM	85.4 µM	> 100 µM	> 100 µM						

SMILES	TGI [1]	TGI [2]	TGI [3]	TGI [4]	TGI [5]	TGI [6]	TGI [7]	TGI [8]	TGI [9]	TGI [10]	GI50 [2]	GI50 [3]	GI50 [5]	GI50 [7]	GI50 [8]	GI50 [10]
COc1cc(Br)cc2cc(-c3cn4ccsc4n3)c(=O)oc12	> 100 µM	> 100 µM	> 100 µM	> 100 µM	> 100 µM	> 100 µM	> 100 µM	> 100 µM	> 100 µM	> 100 µM						
COC(=O)C([C@H](NC1(c2ccccc2)c2ccccc2-c2ccccc21)C(=O)OC)N(NC(=O)OCc1ccccc1)C(=O)OCc1ccccc1 (mixture of isomers)	> 100 µM	> 100 µM	> 100 µM	> 100 µM	> 100 µM	> 100 µM	> 100 µM	> 100 µM	> 100 µM	> 100 µM						
Clc1ccccc1C(SCc1ccccc1)SCc1ccccc1	> 100 µM	> 100 µM	> 100 µM	> 100 µM	> 100 µM	> 100 µM		> 100 µM	> 100 µM	> 100 µM						
CC(=O)OC1CC(OC2C(O)CC(OC3C(O)CC(OC4CCC5(C)C(CCC6C5CC(O)C5(C)C(C7=CC(=O)OC7)CCC65O)C4)OC3C)OC2C)OC(C)C1OC1OC(CO)C(O)C(O)C1O (configuration not stated)	0.146 µM	0.0904 µM		0.0981 µM	0.16 µM	0.0956 µM	0.161 µM	> 100 µM	0.207 µM	0.204 µM						
N#Cc1c(-c2ccccc2)/c(=C\Nc2cccc(C(F)(F)F)c2)c(=O)n2c1nc1ccccc12	> 100 µM	14.2 µM	> 100 µM	74.2 µM	> 100 µM	> 100 µM	> 100 µM		> 100 µM	51.5 µM						
CC[C@@H]1CC[C@@H]2[C@H](CC[C@]3(C)[C@@H](OC(C)=O)CC[C@@H]23)[C@H]1COC(C)=O	> 100 µM	> 100 µM	41.2 µM	73.6 µM	56 µM	> 100 µM	31.5 µM	37 µM	75 µM	82 µM						
COc1cc2nc3n(c(=O)c2cc1OC)-c1ccc([N+](=O)[O-])cc1C3=O	> 100 µM	92.1 µM		> 100 µM	> 100 µM	> 100 µM	> 100 µM	> 100 µM	63.9 µM	> 100 µM						
Nn1c(-c2ccccc2)nn(C(=O)c2ccccc2)c1=O	> 100 µM		> 100 µM	> 100 µM	> 100 µM	> 100 µM	> 100 µM	> 100 µM	> 100 µM	> 100 µM						
COC(=O)c1c(C)cccc1C1CN=NC12Cc1ccc(C)cc1C2=O (configuration not stated)	> 100 µM	> 100 µM	> 100 µM	> 100 µM	> 100 µM	> 100 µM	> 100 µM	84.7 µM	> 100 µM	> 100 µM						
CN(C(=O)C(Cc1ccccc1)NC(=O)OC(C)(C)C)C1(C(=O)NC(Cc2ccccc2)C(=O)OCc2ccccc2)CCCC1 (stereo not drawn) (Boc-Phe-[NMeAc5c]-Phe-OBn; configuration not given here)	> 100 µM		> 100 µM	> 100 µM	> 100 µM	> 100 µM	> 100 µM	84.2 µM	> 100 µM	> 100 µM						
O=C1CCCSC(=O)N1Cc1ccccc1	> 100 µM	> 100 µM	> 100 µM	> 100 µM	> 100 µM	> 100 µM	> 100 µM	> 100 µM	> 100 µM	> 100 µM						
c1csc(-c2ccc(-c3cccc4nsnc34)s2)c1	> 100 µM	> 100 µM	69.3 µM	> 100 µM	> 100 µM	> 100 µM	> 100 µM	39.2 µM	> 100 µM	> 100 µM						
N#CCCC1C(C#N)C2(Cl)CC1(Cl)C(Cl)=C2Cl (configuration not stated)	> 10 µM	> 10 µM	> 10 µM	> 10 µM	> 10 µM	> 10 µM	> 10 µM	> 10 µM	> 10 µM	> 10 µM						
CCOC(=O)C(SCCO)C(C(=O)OCC)n1cnc2c(=O)[nH]c(NC(C)=O)nc21 (configuration not stated)	> 100 µM	> 100 µM	> 100 µM	> 100 µM	> 100 µM	> 100 µM	> 100 µM	> 100 µM	> 100 µM	> 100 µM						
O=C1/C(=C\c2ccccc2)C(NC2CCCCC2)c2ccccc21 (configuration not stated)	2.34 µM	2.83 µM	0.294 µM	11.2 µM	5.79 µM	7.21 µM	3.33 µM	3.02 µM	3.93 µM	6.09 µM						
O=C(N/N=C(/COc1ccc(Cl)cc1)N=Cc1ccncc1)c1ccncc1	> 100 µM	> 100 µM	> 100 µM	> 100 µM	> 100 µM	> 100 µM	> 100 µM	> 100 µM	> 100 µM	> 100 µM						
COCO[C@@H]1C[C@H]2C(=O)Nc3ccccc3C(=O)N2C1	> 100 µM	> 100 µM		> 100 µM	> 100 µM	90.1 µM	> 100 µM		> 100 µM	> 100 µM						
CC(=O)O[C@@H]1[C@H](C(C)C)[C@@H](OC(C)=O)C/C(C)=C/CC[C@]2(C)O[C@@H]12	> 100 µM	> 100 µM		> 100 µM	> 100 µM	> 100 µM	> 100 µM	> 100 µM	> 100 µM	> 100 µM						
[N-]=[N+]=NC[C@H]1OCO[C@H](CN=[N+]=[N-])[C@@H](OCCOCCCl)[C@@H]1OCCOCCCl		> 100 µM	> 100 µM	> 100 µM	> 100 µM	> 100 µM	> 100 µM	> 100 µM	> 100 µM	> 100 µM						
COC(CCC[N+](C)(C)C)CC[N+](C)(C)C (configuration not stated)	> 100 µM	> 100 µM	> 100 µM	> 100 µM	> 100 µM	> 100 µM		> 100 µM	> 100 µM	> 100 µM						
Cc1cc(Cc2cc(C)c(N)cc2N)c(N)cc1N	> 100 µM	> 100 µM		> 100 µM	> 100 µM	> 100 µM	> 100 µM	> 100 µM	> 100 µM	> 100 µM						
